Source: ChEMBL document CHEMBL1201862, “PubChem BioAssay data set” (2004)
Several values for one entry are separate records, joined by “and”; a condition that tells them apart may be missing. Equal values may be shown once. Activity calls are given as the source filed them.

Columns and labels:
[1] = CRF-BP/CRF-R2 complex antagonists, dose response, cell-based, uHTS hits, 384-well (AID 651639); type: functional, Homo sapiens; conditions: read-out: IC50_Mean
[2] = molecular target: T1, Corticotropin-releasing factor receptor 2/Corticotropin-releasing factor-binding protein (Homo sapiens, UniProt P24387+Q13324); test: Dose Response confirmation of uHTS hits for small molecule antagonists of the CRF-binding protein and CRF-R2 receptor complex.; type: functional; conditions: read-out: IC50_Mean
T1 sequence (Q13324 whole entry): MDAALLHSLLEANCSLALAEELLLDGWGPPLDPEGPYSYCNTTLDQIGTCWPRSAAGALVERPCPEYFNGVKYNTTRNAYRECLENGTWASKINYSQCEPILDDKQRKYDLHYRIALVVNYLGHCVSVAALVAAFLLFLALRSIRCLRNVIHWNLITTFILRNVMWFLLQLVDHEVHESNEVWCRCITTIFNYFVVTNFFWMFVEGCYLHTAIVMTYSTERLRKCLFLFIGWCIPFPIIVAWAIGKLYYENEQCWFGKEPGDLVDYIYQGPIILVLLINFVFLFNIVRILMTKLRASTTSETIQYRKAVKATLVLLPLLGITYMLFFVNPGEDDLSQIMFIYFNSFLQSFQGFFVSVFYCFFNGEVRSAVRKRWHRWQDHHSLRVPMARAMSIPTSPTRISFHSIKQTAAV
T1 sequence (P24387 whole entry): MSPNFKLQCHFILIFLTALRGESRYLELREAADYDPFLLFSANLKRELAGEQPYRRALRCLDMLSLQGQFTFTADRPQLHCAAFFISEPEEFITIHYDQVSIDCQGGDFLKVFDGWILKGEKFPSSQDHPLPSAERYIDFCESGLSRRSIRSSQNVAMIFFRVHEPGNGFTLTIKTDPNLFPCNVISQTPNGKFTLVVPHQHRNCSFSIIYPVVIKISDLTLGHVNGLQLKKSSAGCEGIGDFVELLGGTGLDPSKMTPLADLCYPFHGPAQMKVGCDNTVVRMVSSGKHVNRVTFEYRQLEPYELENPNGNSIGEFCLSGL

[3] = molecular target: T1, Corticotropin-releasing factor receptor 2/Corticotropin-releasing factor-binding protein; test: activators of CRF receptor 2 with binding protein – uHTS hits, confirmation (AID 602473); type: functional; conditions: read-out: EC50_Mean
[4] = cytotoxicity toward DRD oncogenic fibroblasts, dose response, cell-based, non-viral oncogenic, luminescence (AID 1934); type: functional; conditions: Homo sapiens
BJ [5] = test: cytotoxicity toward BJ-TERT-LT-ST fibroblasts, dose response, cell-based, RAS-independent, luminescence (AID 1935); type: functional; conditions: Homo sapiens;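 note: BJ fibroblasts immortalized with TERT plus LT and ST oncogenes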
[6] = molecular target: T2, High affinity choline transporter 1 (Homo sapiens, UniProt Q9GZV3); test: CHT activators, dose response, cell-based, 10-point CRC, membrane potential dye (AID 602376); type: functional
T2 sequence (Q9GZV3 whole entry): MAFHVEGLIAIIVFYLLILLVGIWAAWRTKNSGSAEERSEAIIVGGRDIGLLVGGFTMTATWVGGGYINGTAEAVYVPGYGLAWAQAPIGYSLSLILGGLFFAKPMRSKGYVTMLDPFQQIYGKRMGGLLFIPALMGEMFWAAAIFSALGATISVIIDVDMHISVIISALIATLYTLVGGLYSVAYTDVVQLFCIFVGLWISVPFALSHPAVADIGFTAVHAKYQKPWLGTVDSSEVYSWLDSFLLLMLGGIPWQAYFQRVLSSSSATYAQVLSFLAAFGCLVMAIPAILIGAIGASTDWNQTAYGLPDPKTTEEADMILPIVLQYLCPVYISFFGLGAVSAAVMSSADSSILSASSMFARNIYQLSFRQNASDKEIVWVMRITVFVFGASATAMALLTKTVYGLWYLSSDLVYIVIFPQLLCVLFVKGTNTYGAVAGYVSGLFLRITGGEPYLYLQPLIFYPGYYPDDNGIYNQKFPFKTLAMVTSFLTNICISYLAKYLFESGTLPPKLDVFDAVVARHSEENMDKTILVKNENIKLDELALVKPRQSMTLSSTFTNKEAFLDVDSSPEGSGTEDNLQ

BJ [7] = test: cells; type: functional, cell-based; conditions: Homo sapiens
BJ [8] = test: cytotoxicity toward Ras-transformed BJeLR fibroblasts, dose response, cell-based, alamar blue fluorescence, cherrypicked samples (AID 2631); type: functional; conditions: Homo sapiens;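 note: confirmatory dose-response assay in RAS-dependent BJ fibroblasts engineered with TERT, LT and ST, with cytotoxicity read by fluorescence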
BJ [9] = test: cytotoxicity toward BJ-TERT fibroblasts, dose response, cell-based, RAS-independent, luminescence (AID 1933); type: functional; conditions: Homo sapiens
[10] = Fluorescence-based cell-based high throughput dose response assay for inhibitors of the interaction of nucleotide-binding oligomerization domain containing 2 (NOD2) and the receptor-interacting serine-threonine kinase 2 (RIPK2).; type: functional; conditions: Homo sapiens
[11] = molecular target: Luciferin 4-monooxygenase (Photinus pyralis, UniProt P08659); test: firefly luciferase enzyme inhibitors, dose response, biochemical, luminescence (AID 1891)
Luciferin 4-monooxygenase, sequence (P08659 whole entry): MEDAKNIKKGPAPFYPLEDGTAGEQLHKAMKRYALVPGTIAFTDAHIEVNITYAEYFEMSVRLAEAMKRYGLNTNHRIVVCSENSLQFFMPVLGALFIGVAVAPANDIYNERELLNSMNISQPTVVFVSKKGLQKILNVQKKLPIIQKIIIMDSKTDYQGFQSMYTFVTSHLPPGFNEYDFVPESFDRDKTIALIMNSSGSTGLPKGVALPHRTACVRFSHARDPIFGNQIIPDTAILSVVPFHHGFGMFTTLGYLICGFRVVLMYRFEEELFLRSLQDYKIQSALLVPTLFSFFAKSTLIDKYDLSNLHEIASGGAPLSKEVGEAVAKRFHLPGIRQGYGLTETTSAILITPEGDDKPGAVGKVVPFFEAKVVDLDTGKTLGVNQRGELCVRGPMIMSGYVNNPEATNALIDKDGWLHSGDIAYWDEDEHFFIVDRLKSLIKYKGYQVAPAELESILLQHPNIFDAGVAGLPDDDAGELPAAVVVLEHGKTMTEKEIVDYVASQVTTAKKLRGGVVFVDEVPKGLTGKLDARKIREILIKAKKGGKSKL

[12] = Luminescence Cell-Based Dose Confirmation HTS to Identify Inhibitors of Platelet Dense Granule Release. [Related pubchem assays: 1663 (Primary HTS), 1678 (Summary of Project)]; type: functional
[13] = molecular target: Photoreceptor-specific nuclear receptor (Homo sapiens, UniProt Q9Y5X4); type: functional, cell-based;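 note: CHO-S cells with Gal4-NCOR and VP16-NR2E3 two-hybrid luciferase reporter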
Photoreceptor-specific nuclear receptor, sequence (Q9Y5X4 whole entry, the tested form may be a part): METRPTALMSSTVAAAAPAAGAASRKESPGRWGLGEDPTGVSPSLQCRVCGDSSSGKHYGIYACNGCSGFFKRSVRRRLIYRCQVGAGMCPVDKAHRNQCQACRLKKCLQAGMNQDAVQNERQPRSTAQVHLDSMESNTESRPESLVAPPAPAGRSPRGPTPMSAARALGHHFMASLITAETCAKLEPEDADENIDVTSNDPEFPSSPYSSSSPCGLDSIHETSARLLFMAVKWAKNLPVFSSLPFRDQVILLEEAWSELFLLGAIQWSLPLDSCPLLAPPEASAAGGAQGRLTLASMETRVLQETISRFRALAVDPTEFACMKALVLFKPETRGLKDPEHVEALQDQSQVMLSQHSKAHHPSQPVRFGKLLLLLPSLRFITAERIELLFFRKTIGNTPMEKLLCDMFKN

[14] = A cytotoxicity screen of small molecule inhibitors of the PhoP region in Salmonella typhi identified in the primary screen. [Related pubchem assays: 1850, 1864, 1985 ]; type: functional
[15] = molecular target: Heat shock protein HSP 90-alpha (Homo sapiens, UniProt P07900); type: functional, organism-based
[16] = molecular target: T2, High affinity choline transporter 1; test: CHT inhibitors, dose response, cell-based, 10-point CRC, membrane potential dye (AID 588401); type: functional;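 note: membrane potential dye fluorescence of choline-evoked depolarization via CHT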
H9c2 = test: cells; type: functional, cell-based; conditions: Rattus norvegicus, H9c2, Myocardium;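 note: confirmatory concentration-response retest of ultra-high-throughput screening hits for modulation of myocardial damage; cell death induced by hydrogen peroxide oxidative stress; compound pretreatment for 60 min then peroxide exposure for 2 h; potency is for protecting the cells against peroxide damage rather than for killing them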
[17] = molecular target: T2, High affinity choline transporter 1; test: CHT inhibitors, dose response, cell-based, 5-point CRC, membrane potential dye (AID 504840); type: functional
[18] = Luminescence Cell-Based Dose Confirmation HTS to Identify Activators of 5'UTR Stem-Loop Driven Alpha-Synuclein mRNA Translation in H4 Neuroglioblastoma Cells. [Related pubchem assays: 1829 (Project Summary), 1814 (Primary HTS)]; type: functional
[19] = StAR promoter reporter inhibition counter-screen, dose response, counter-screen for LRH-1 inverse agonist project, cell-based, luminescence, luciferase reporter (AID 651969); type: functional
[20] = THP-1 cell cytotoxicity, dose response, cytotoxicity control for non-replicating M. tuberculosis project (AID 489025); type: functional
H4 = test: Luminescence Cell-Based Dose Response HTS to Identify Activators of 5'UTR Stem-Loop Driven Prion Protein mRNA Translation in H4 Neuroglioblastoma Cells. [Related pubchem assays: 1829 (Project Summary), 1814 (Primary HTS)]; type: functional; conditions: Homo sapiens
Steroidogenic factor 1 = Steroidogenic factor 1 (Homo sapiens, UniProt Q13285); test: Counterscreen for inverse agonists of the liver receptor homolog-1 (LRH-1; NR5A2): Luminescence-based cell-based high throughput dose response assay to identify inverse agonists of the Steroidogenic Factor 1 Nuclear Receptor (SF1; NR5A1).; type: functional
Steroidogenic factor 1, sequence (Q13285 whole entry): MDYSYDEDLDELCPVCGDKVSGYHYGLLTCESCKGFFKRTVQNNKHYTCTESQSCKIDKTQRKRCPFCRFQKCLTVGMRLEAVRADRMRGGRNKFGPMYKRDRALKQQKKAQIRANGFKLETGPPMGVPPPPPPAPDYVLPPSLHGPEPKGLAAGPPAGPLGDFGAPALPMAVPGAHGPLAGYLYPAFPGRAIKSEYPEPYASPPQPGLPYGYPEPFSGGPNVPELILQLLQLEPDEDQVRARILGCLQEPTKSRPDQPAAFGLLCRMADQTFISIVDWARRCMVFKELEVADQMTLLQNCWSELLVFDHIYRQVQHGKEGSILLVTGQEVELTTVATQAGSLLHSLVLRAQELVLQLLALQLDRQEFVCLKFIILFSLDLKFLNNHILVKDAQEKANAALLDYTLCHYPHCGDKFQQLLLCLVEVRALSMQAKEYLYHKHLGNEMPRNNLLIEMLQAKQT

[21] = Vero E6 cell cytotoxicity, dose response, cytotoxicity control for non-replicating M. tuberculosis project, secondary assay (AID 492998); type: functional, VeroE6; conditions: Vero C1008
[22] = molecular target: Nuclear receptor subfamily 5 group A member 2 (Homo sapiens, UniProt O00482); type: functional, cell-based;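 note: HEK293T cells transfected with LRH-1 and a StAR promoter luciferase reporter; potency for inhibitors that lower LRH-1 driven reporter light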
Nuclear receptor subfamily 5 group A member 2, sequence (O00482 whole entry): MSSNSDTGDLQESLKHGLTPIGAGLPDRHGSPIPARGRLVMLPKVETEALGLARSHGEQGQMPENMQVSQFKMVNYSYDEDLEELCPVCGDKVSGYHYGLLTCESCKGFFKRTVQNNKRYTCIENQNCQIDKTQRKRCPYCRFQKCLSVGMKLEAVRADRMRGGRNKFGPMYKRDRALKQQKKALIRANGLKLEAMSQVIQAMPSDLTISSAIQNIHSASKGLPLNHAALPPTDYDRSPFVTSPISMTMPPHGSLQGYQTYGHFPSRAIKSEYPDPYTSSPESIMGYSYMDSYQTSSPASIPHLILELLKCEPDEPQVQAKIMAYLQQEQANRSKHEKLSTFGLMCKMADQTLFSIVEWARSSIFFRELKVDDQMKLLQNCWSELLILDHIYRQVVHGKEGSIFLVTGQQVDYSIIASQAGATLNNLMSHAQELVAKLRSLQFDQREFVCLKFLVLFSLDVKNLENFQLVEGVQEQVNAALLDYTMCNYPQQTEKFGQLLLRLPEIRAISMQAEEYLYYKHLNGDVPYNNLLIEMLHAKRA

[23] = Luminescence Cell-Based Dose Response HTS to Identify Activators of Luciferase Translation or Activity in H4 […] Cells. [Related pubchem assays: 1829 (Project Summary), 1814 (Primary HTS)]; type: functional
[24] = Luminescence Cell-Based Dose Retest to Confirm Inhibitors of Cancer Stem Cells. [Related pubchem assays (depositor defined):AID2717, AID2721]; type: functional, Homo sapiens; conditions: Homo sapiens
cells = type: functional
[25] = molecular target: T3, Low molecular weight phosphotyrosine protein phosphatase (Homo sapiens, UniProt P24666); type: functional; conditions: read-out: IC50_Mean
T3 sequence (P24666 whole entry): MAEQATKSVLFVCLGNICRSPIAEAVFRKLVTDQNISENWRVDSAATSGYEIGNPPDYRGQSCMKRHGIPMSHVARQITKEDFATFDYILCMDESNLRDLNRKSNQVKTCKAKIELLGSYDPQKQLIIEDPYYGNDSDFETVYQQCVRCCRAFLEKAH

[26] = molecular target: T4, Tyrosine-protein phosphatase non-receptor type 22 (Homo sapiens, UniProt Q9Y2R2); test: LYP phosphatase inhibition for selectivity, dose response, selectivity assay for LMPTP inhibitor project, biochemical, fluorescence, LYP catalytic domain (AID 652006); type: functional; conditions: read-out: IC50_Mean
T4 sequence (Q9Y2R2 whole entry): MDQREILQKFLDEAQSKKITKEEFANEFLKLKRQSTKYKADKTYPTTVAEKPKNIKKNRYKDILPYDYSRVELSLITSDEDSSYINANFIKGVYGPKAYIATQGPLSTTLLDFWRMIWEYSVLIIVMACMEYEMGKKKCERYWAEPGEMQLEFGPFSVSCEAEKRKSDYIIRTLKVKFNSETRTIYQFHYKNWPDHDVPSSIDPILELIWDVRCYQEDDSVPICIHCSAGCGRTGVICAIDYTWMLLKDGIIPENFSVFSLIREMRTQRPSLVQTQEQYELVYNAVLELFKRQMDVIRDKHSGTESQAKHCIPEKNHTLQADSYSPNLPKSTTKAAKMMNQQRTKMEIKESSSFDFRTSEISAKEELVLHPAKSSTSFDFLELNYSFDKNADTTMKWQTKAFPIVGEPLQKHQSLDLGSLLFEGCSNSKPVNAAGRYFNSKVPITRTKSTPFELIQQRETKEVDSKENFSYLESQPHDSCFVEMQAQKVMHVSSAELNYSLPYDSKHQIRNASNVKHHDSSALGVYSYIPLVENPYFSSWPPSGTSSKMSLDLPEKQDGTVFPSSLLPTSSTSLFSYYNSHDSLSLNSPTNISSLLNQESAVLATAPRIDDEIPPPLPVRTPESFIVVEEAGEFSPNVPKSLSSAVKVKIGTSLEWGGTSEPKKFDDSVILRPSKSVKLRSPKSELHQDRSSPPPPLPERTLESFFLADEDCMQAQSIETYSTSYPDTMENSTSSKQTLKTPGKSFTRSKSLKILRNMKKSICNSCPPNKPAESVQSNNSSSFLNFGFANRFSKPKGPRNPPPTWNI

[27] = molecular target: T3, Low molecular weight phosphotyrosine protein phosphatase; type: functional; conditions: read-out: IC50_Mean; remark: listed apart in the source
[28] = molecular target: Aryl hydrocarbon receptor (Homo sapiens, UniProt P35869); conditions: Potency;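 note: confirmatory quantitative high-throughput screen measuring activation of the AhR signaling pathway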
Aryl hydrocarbon receptor, sequence (P35869 whole entry): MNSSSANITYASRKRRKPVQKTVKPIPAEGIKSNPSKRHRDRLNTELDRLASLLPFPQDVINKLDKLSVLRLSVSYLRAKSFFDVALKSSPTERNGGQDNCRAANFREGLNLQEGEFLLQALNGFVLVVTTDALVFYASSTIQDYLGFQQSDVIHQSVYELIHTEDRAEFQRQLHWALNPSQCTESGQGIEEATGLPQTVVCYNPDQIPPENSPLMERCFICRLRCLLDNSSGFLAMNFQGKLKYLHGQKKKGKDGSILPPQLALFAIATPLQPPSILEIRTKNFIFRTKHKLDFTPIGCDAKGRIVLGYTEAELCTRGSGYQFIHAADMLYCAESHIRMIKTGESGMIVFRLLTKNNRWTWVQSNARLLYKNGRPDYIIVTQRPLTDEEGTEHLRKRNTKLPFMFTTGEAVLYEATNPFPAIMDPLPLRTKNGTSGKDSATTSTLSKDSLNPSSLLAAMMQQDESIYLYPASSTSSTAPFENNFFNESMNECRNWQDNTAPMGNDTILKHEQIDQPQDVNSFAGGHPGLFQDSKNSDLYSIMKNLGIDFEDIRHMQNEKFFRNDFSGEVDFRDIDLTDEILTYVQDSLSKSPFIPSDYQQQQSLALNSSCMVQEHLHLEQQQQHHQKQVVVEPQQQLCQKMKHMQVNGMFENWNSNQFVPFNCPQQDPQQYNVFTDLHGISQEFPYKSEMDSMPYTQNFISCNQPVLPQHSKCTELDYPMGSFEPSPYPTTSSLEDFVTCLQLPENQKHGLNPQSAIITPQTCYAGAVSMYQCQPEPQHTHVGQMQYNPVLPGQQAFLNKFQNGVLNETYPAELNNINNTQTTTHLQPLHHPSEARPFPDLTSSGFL

COC(=O)c1ccc(Sc2ccc(Cl)cc2)c(N)c1
IC50 [1]: > 20 µM (inactive)
IC50 [2]: < 0.368 µM (active)
EC50 [3]: > 53 µM (inactive)

CCOC(=O)c1ccc(NC(=O)Nc2ccon2)cc1
EC50 [4]: 0.429 µM (active)
EC50 (BJ [5]): 0.469 µM (active)
EC50 [6]: 8.42 µM (active)
EC50 (BJ [7]): 20.1 µM (active)
EC50 (BJ [8]): < 0.104 µM (active)
EC50 (BJ [9]): 0.401 µM (active)
IC50 [10]: 49.7 µM (inactive)

Cc1cccc(C)c1OCc1cc(C(=O)N2CCC(c3ccncc3)CC2)no1
EC50 [11]: > 112 µM (not active)
EC50 [12]: > 112 µM (not active)
IC50 [13]: 6.23 µM (active)

Cc1c(/N=C/c2cc(Br)cc(Br)c2O)cccc1C(=O)O
EC50 [14]: > 50 µM (active)
AC50 [15]: 3.56 µM (active)
IC50 [16]: 2.67 µM (active)
IC50 (H9c2): 20 µM (active)
IC50 [17]: 3.44 µM (active)

O=c1c2ccccc2[nH]c(=S)n1CCN1CCCCC1
IC50 [16]: 7.94 µM (active)
IC50 [17]: 8.77 µM (active)

O=C(Nc1ccc(S(=O)(=O)N2CCOCC2)cc1)c1ccc([N+](=O)[O-])o1
EC50 [18]: > 120 µM (not active)
IC50 [19]: 35.9 µM (inactive)
CC50 [20]: 4.04 µM (active)
EC50 (H4): > 120 µM (not active)
IC50 (Steroidogenic factor 1): 0.443 µM (active)
CC50 [21]: 3.98 µM (active)
IC50 [22]: 10.8 µM (inactive)
EC50 [23]: > 120 µM (not active)
AC50 [24]: 3.43 µM (active)
IC50 (cells): 6.7 µM (active)

COc1ccccc1CNc1nc(NCc2ccc(NC(C)=O)cc2)c2sccc2n1
IC50 [25]: 17.7 µM (active)
IC50 [26]: 50.4 µM (inactive)
IC50 [27]: 5.86 µM (active)

O=c1cc(-c2ccc(O)cc2)oc2cc(O)cc(O)c12 [APIGENIN]
AC50 [28]: 35.5 µM (inconclusive) and 28.2 µM (inconclusive)
